Measured values as given in patent US20080003590A1, “Termination of Binding Parameters” (priority 2004, published 2008).

Tests used:
[1] = biological target: human serum albumin (HSA) (Homo sapiens, UniProt P02768); experiment: biochemical
Protocol: 5. Immobilization of Human Serum Albumin (HSA) on Fluorescence-Active Supports (FI-HSA)
For the immobilization of HSA, 100 mg of HSA dissolved in 10 ml of phosphate buffer (20 mM, pH 7.4) are added to 1 g of a support prepared according to 2. and rotated overhead for at least four hours. To remove free protein, this is washed with phosphate buffer, 1M NaCl in phosphate buffer and finally with PBS. The quantification of the protein immobilization is effected by supernatant analysis. The suspension is adjusted to a desired protein concentration in PBS and stored.
For the determination of the albumin binding, 200 mg of the FI-HSA support prepared in 5. were made up to a total volume of 1 ml with PBS, and similarly 200 mg of an FI-Ref prepared according to 3. were made up to 1 ml with PBS.
For the determination of the concentration-dependent quantities, the following volumes were pipetted into the wells of a 384 well UV plate (Greiner UV-plate): […]
whereby the final concentration of carbamazepine in the wells is 70 μM. […] For the determination of the concentration-dependent quantity cpre-binding, excitation spectra of the wells reference 1 and substance 1 are recorded in the “top-read” mode between 250 and 480 nm with an emission wavelength of 530 nm, and calculated from cpre-binding=log F0v(λ)/Fv(λ), where F0v(λ) and Fv(λ) are the excitation spectra of the wells reference 1 and substance 1. […]

[2] = Determination of the membrane affinity of warfarin in the 96-well format (FI-EiPC support, internal filter effect); assay type: physicochemical; conditions: triple determination, 70 μM warfarin, FI-EiPC support in PBS
Protocol: 4. Reconstitution of Lipid Membranes on Fluorescence-Active Supports (FI-EiPC)
For the reconstitution of lipid membranes, firstly 1 g of a support prepared according to 2. is treated with a solution of 25 mg of sodium polystyrenesulfonate in 25 ml of water in the overhead rotator and then washed three times each with water and PBS.
60 ml of a vesicle solution of 5 mg/ml EiPC (lipid extract from egg yolk) in PBS (prepared by homogenization in the Avestin Co EmulsiFlex-C5 homogenizer) are added to this support and incubated overnight. To remove excess lipid, this is washed three times with PBS and the support is then stored in PBS. The determination of the lipid concentration is effected by drying of defined volumes of suspension, detachment of the lipid from the solid body using an organic solvent, and then HPLC analysis.
Well reference 1: 100 μl FI-Ref suspension+200 μl PBS
Well substance 1: 100 μl FI-Ref suspension+170 μl PBS+30 μl warfarin solution;
Well reference 1′: 100 μl FI-EiPC suspension+200 μl PBS
Well substance 1′: 100 μl FI-EiPC suspension+170 μl PBS+30 μl warfarin solution; whereby the final concentration of warfarin in the wells is 70 μM. […]

Sequence of human serum albumin (HSA) (P02768 25-609): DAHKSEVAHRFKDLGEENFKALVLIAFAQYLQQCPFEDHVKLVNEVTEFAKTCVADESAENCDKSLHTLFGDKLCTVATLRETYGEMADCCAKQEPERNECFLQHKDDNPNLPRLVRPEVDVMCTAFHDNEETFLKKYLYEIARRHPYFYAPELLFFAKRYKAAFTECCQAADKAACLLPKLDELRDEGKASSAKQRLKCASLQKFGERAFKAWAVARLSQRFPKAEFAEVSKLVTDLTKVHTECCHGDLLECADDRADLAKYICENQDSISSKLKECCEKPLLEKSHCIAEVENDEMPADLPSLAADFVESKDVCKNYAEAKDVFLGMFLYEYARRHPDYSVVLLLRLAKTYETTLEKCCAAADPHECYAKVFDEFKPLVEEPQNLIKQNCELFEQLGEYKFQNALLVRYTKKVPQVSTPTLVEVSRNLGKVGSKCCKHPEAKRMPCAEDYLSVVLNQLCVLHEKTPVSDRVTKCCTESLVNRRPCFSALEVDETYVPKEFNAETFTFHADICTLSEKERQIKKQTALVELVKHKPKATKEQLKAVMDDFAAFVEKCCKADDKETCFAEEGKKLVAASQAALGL

| SMILES | Kd [1] | membrane affinity [2] |
| --- | --- | --- |
| NC(=O)N1c2ccccc2C=Cc2ccccc21 [carbamazepine] | 170 µM | – |
| CC(=O)CC(c1ccccc1)c1c(O)c2ccccc2oc1=O (centres unmarked) [warfarin] | – | 1.7±0.3 |
